Source: patent publication EP4446411A1, “VARIANT SUBTILISIN PROTEASES” (PEACCEL, priority 2023, dated 2024)
*1 amine or outer side, *2 acyl side, *3 side chain or, on linkers, in order; H or OH if unused. Where a SMILES comes first, the peptide text is derived from it. The star is where a group is joined. pNA = O=[N+]([O-])c1ccc(N*)cc1; Suc = O=C(CCC(=O)[*:2])[*:1]

Legend:
Test in all cases: Kinetic parameters by release of p-nitroaniline from suc-AAPFpNA (absorbance at 410 nm, Michaelis-Menten fit)
[1] = molecular target: T1, Bacillus lentus subtilisin variant N74D/S101A/V102W (control variant of WO1995010591), SEQ ID NO: 3 (Lederbergia lenta, UniProt P29600, N74D/S101A/V102W); assay type: biochemical
T1 construct: made in house; host or cells: protease deficient Bacillus subtilis 168
T1 sequence (P29600 1-269 N74D/S101A/V102W): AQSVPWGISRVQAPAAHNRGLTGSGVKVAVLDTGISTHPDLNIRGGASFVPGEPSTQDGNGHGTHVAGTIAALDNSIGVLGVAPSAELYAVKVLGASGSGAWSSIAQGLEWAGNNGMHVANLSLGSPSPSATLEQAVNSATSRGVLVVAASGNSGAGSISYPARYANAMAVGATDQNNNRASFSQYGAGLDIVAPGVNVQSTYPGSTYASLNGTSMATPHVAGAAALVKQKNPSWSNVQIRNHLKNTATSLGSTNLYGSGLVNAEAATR
Method: (§1) Three selected mutants as well as the wild-type and one mutant of the patent application WO1995010591 A1 data set were cloned in a Bacillus vector behind a constitutive APRE promotor and expressed in a protease deficient Bacillus subtilis 168 strain. The transformed strains were grown for 24 hours at 37°C in shake flasks. The subtilisin variants were purified by Ion exchange chromatography followed by […] with a 0-200 mM salt gradient. The activity of the protease variants was determined by the release of the chromophore para-nitroanilide from succinyl-alanine-alanine-proline-phenylalanine-para-nitroanilide (suc-AAPFpNA). The release of the pNA causes an increase in the absorbance at 410 nm, the temporal progression of which is used as a measure of the activity of the enzymes.
(§2) The kinetic parameters kcat and Km of the variants were measured using basically the method described in Bonneau, P. R., Graycar, T. P., Estell, D. A., & Jones, J. B. (1991). Alteration of the specificity of subtilisin BPN'by site-directed mutagenesis in its S1 and S1'binding sites. Journal of the American Chemical Society, 113(3), 1026-1030. A small aliquot of purified subtilisin variant was added to a 96 microtiterplate well containing succinyl-L-Ala-L-Ala-L-Pro-L-Phe-p-nitroanilide (SEQ ID NO: 1) dissolved in 0.1M Tris-HCL, pH 8.6. The reaction progress was measured spectrophotometrically at 25°C by monitoring the absorbance of p-nitroaniline at 410nm. The corresponding experimental values were fit to the Michaelis-Menten equation by a regression algorithm. The kcat/KM ratio was obtained by dividing the resulting values. […] Table 2: kinetic parameters kcat and Km of the variants at pH 8.6
(§3) The kinetic parameters kcat and Km of the variants were also measured using basically the method described in Bonneau, P. R., Graycar, T. P., Estell, D. A., & Jones, J. B. (1991). Alteration of the specificity of subtilisin BPN'by site-directed mutagenesis in its S1 and S1'binding sites. Journal of the American Chemical Society, 113(3), 1026-1030. A small aliquot of purified subtilisin variant was added to a microtiterplate containing suc-AAPFpNA (SEQ ID NO:1) dissolved in 0.1M glycine pH10. The reaction progress was measured spectrophotometrically by monitoring the absorbance of p-nitroaniline at 410nm. The corresponding experimental values were fit to the Michaelis-Menten equation by a regression algorithm. The kcat/Km ratio was obtained by dividing the resulting values. […] Kcat kcat/km are indicated as % compared to the wild-type (100%). Table 3: kinetic parameters kcat and Km of the variants at pH 10

[2] = molecular target: T2, Bacillus lentus subtilisin variant N74D/S99G/V102W/S126G/D191E/N198G/N212S/T254P, SEQ ID NO: 4 (Lederbergia lenta, UniProt P29600, D191E/N198G/N212S/N74D/S126G/S99G/T254P/V102W); assay type: biochemical
T2 construct: made in house; host or cells: protease deficient Bacillus subtilis 168
T2 sequence (P29600 1-269 N74D/S99G/V102W/S126G/D191E/N198G/N212S/T254P): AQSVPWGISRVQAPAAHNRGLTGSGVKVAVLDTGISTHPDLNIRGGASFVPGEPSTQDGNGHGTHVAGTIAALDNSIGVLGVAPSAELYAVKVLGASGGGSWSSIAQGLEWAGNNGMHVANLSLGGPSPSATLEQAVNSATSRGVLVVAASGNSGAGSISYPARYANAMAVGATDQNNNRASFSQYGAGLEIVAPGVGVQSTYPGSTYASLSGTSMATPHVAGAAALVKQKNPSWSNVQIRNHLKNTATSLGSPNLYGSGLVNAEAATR
Method: as §1, §2, §3

[3] = molecular target: T3, Bacillus lentus subtilisin variant N74D/S97D/S126G/P204I/T254P/S259N, SEQ ID NO: 6 (Lederbergia lenta, UniProt P29600, N74D/P204I/S126G/S259N/S97D/T254P); assay type: biochemical
T3 construct: made in house; host or cells: protease deficient Bacillus subtilis 168
T3 sequence (P29600 1-269 N74D/S97D/S126G/P204I/T254P/S259N): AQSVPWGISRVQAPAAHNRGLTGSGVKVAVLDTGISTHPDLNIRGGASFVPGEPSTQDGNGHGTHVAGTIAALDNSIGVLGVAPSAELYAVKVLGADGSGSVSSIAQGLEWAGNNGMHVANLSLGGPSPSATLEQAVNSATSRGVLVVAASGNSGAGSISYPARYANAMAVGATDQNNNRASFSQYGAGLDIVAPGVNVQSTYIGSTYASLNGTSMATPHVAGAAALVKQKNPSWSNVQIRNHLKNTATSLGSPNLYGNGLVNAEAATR
Method: as §1, §2, §3

[4] = molecular target: T4, Bacillus lentus subtilisin variant N74D/S99G/V102W/S126G/N198A/N212S/T254P, SEQ ID NO: 5 (Lederbergia lenta, UniProt P29600, N198A/N212S/N74D/S126G/S99G/T254P/V102W); assay type: biochemical
T4 construct: made in house; host or cells: protease deficient Bacillus subtilis 168
T4 sequence (P29600 1-269 N74D/S99G/V102W/S126G/N198A/N212S/T254P): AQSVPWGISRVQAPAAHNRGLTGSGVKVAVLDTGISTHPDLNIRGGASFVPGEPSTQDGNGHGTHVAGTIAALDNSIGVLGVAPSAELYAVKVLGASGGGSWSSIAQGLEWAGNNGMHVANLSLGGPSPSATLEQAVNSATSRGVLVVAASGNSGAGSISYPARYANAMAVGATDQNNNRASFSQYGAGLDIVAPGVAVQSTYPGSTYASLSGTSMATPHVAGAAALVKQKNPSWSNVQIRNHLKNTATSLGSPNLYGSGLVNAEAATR
Method: as §1, §2, §3

[5] = molecular target: T5, wild-type subtilisin of Bacillus lentus (GG36), WT, SEQ ID NO: 2 (Lederbergia lenta, UniProt P29600); assay type: biochemical
T5 construct: made in house; host or cells: protease deficient Bacillus subtilis 168
T5 sequence (P29600 1-269): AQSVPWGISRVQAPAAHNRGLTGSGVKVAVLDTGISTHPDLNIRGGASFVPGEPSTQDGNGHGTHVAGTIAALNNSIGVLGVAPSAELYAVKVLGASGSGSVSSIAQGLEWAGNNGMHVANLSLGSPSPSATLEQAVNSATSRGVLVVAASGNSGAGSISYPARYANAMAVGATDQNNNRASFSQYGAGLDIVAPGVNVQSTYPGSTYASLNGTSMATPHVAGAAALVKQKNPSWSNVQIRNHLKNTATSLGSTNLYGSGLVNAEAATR
Method: as §1, §2, §3

[6] = substrate: C[C@H](NC(=O)CCC(=O)O)C(=O)N[C@@H](C)C(=O)N1CCC[C@H]1C(=O)N[C@@H](Cc1ccccc1)C(=O)Nc1ccc([N+](=O)[O-])cc1; assay type: biochemical, Bacillus lentus
Method: as §1, §2, §3

[7] = other: 0.1M Tris-HCL, pH 8.6, 25°C, pH 8.6, 25.0 °C
[8] = other: 0.1M glycine pH10, pH 10.0

## C[C@H](NC(=O)CCC(=O)O)C(=O)N[C@@H](C)C(=O)N1CCC[C@H]1C(=O)N[C@@H](Cc1ccccc1)C(=O)Nc1ccc([N+](=O)[O-])cc1 [succinyl-L-Ala-L-Ala-L-Pro-L-Phe-p-nitroanilide] (Suc-AAPF-pNA)
[1]; 0.1M Tris-HCL, pH 8.6, 25°C
  kcat pH 8.6: 638 % of wild-type
  kcat/Km pH 8.6: 1392 % of wild-type
[1]; 0.1M glycine pH10
  kcat pH 10: 554 %half-life of wild-type
  kcat/Km pH10: 2263 % wild-type
[2]; 0.1M Tris-HCL, pH 8.6, 25°C
  kcat pH 8.6: 579 % of wild-type
  kcat/Km pH 8.6: 3326 % of wild-type
[2]; 0.1M glycine pH10
  kcat pH 10: 719 %half-life of wild-type
  kcat/Km pH10: 5100 % wild-type
[3]; 0.1M Tris-HCL, pH 8.6, 25°C
  kcat pH 8.6: 55 % of wild-type
  kcat/Km pH 8.6: 51 % of wild-type
[3]; 0.1M glycine pH10
  kcat pH 10: 37 %half-life of wild-type
  kcat/Km pH10: 97 % wild-type
[4]; 0.1M Tris-HCL, pH 8.6, 25°C
  kcat pH 8.6: 503 % of wild-type
  kcat/Km pH 8.6: 6362 % of wild-type
[4]; 0.1M glycine pH10
  kcat pH 10: 723 %half-life of wild-type
  kcat/Km pH10: 10827 % wild-type
[5]; 0.1M Tris-HCL, pH 8.6, 25°C
  kcat pH 8.6: 100 % of wild-type
  kcat/Km pH 8.6: 100 % of wild-type
[5]; 0.1M glycine pH10
  kcat pH 10: 100 %half-life of wild-type
  kcat/Km pH10: 100 % wild-type

B1: wild-type subtilisin of Bacillus lentus (GG36), WT, SEQ ID NO: 2 (Lederbergia lenta) (protein)
chain: AQSVPWGISRVQAPAAHNRGLTGSGVKVAVLDTGISTHPDLNIRGGASFVPGEPSTQDGNGHGTHVAGTIAALNNSIGVLGVAPSAELYAVKVLGASGSGSVSSIAQGLEWAGNNGMHVANLSLGSPSPSATLEQAVNSATSRGVLVVAASGNSGAGSISYPARYANAMAVGATDQNNNRASFSQYGAGLDIVAPGVNVQSTYPGSTYASLNGTSMATPHVAGAAALVKQKNPSWSNVQIRNHLKNTATSLGSTNLYGSGLVNAEAATR
notes: made in house; host or cells: protease deficient Bacillus subtilis 168
[6]; [7]
  Km: 630 µM
[6]; [8]
  Km: 1340 µM

B2: Bacillus lentus subtilisin variant N74D/S99G/V102W/S126G/N198A/N212S/T254P, SEQ ID NO: 5 (Lederbergia lenta; N198A/N212S/N74D/S126G/S99G/T254P/V102W) (protein)
chain: AQSVPWGISRVQAPAAHNRGLTGSGVKVAVLDTGISTHPDLNIRGGASFVPGEPSTQDGNGHGTHVAGTIAALDNSIGVLGVAPSAELYAVKVLGASGGGSWSSIAQGLEWAGNNGMHVANLSLGGPSPSATLEQAVNSATSRGVLVVAASGNSGAGSISYPARYANAMAVGATDQNNNRASFSQYGAGLDIVAPGVAVQSTYPGSTYASLSGTSMATPHVAGAAALVKQKNPSWSNVQIRNHLKNTATSLGSPNLYGSGLVNAEAATR
notes: as for B1
[6]; [7]
  Km: 50 µM
[6]; [8]
  Km: 90 µM

B3: Bacillus lentus subtilisin variant N74D/S99G/V102W/S126G/D191E/N198G/N212S/T254P, SEQ ID NO: 4 (Lederbergia lenta; … (protein)
chain: AQSVPWGISRVQAPAAHNRGLTGSGVKVAVLDTGISTHPDLNIRGGASFVPGEPSTQDGNGHGTHVAGTIAALDNSIGVLGVAPSAELYAVKVLGASGGGSWSSIAQGLEWAGNNGMHVANLSLGGPSPSATLEQAVNSATSRGVLVVAASGNSGAGSISYPARYANAMAVGATDQNNNRASFSQYGAGLEIVAPGVGVQSTYPGSTYASLSGTSMATPHVAGAAALVKQKNPSWSNVQIRNHLKNTATSLGSPNLYGSGLVNAEAATR
notes: as for B1
[6]; [7]
  Km: 110 µM
[6]; [8]
  Km: 190 µM

B4: Bacillus lentus subtilisin variant N74D/S101A/V102W (control variant of WO1995010591), SEQ ID NO: 3 (Lederbergia lenta; N74D/S101A/V102W) (protein)
chain: AQSVPWGISRVQAPAAHNRGLTGSGVKVAVLDTGISTHPDLNIRGGASFVPGEPSTQDGNGHGTHVAGTIAALDNSIGVLGVAPSAELYAVKVLGASGSGAWSSIAQGLEWAGNNGMHVANLSLGSPSPSATLEQAVNSATSRGVLVVAASGNSGAGSISYPARYANAMAVGATDQNNNRASFSQYGAGLDIVAPGVNVQSTYPGSTYASLNGTSMATPHVAGAAALVKQKNPSWSNVQIRNHLKNTATSLGSTNLYGSGLVNAEAATR
notes: as for B1
[6]; [7]
  Km: 290 µM
[6]; [8]
  Km: 330 µM

B5: Bacillus lentus subtilisin variant N74D/S97D/S126G/P204I/T254P/S259N, SEQ ID NO: 6 (Lederbergia lenta; N74D/P204I/S126G/S259N/S97D/T254P) (protein)
chain: AQSVPWGISRVQAPAAHNRGLTGSGVKVAVLDTGISTHPDLNIRGGASFVPGEPSTQDGNGHGTHVAGTIAALDNSIGVLGVAPSAELYAVKVLGADGSGSVSSIAQGLEWAGNNGMHVANLSLGGPSPSATLEQAVNSATSRGVLVVAASGNSGAGSISYPARYANAMAVGATDQNNNRASFSQYGAGLDIVAPGVNVQSTYIGSTYASLNGTSMATPHVAGAAALVKQKNPSWSNVQIRNHLKNTATSLGSPNLYGNGLVNAEAATR
notes: as for B1
[6]; [7]
  Km: 660 µM
[6]; [8]
  Km: 520 µM
